Patent US12171797B2, “Composition for ameliorating premenstrual syndrome symptoms, including chrysanthemum zawadskii extract” (GENENCELL INC., priority 2019, dated 2024)

Tested on: hyperprolactinemia-induced female rats
Test: Hyperprolactinemia-induced (metoclopramide) animal model of premenstrual syndrome, serum prolactin and progesterone by ELISA
Format: in vivo
Conditions: 50 mg/kg metoclopramide to the abdominal cavity for 5 days
Procedure: Metoclopramide is used as an antiemetic drug, and increases the secretion of prolactin by inhibiting dopamine secretion, and accordingly, it is known as a drug that inhibits the secretion of progesterone, luteinizing hormone, and follicle-stimulating hormone (Wang et al., 2014). Therefore, in the present invention, 50 mg/kg of metoclopramide was administered to the abdominal cavity of female rats for 5 days, after which hyperprolactinemia was induced to establish an animal model of premenstrual syndrome caused by hormone secretion disorder. Rats (females) were obtained from Raonbio, and were acclimatized for 1 week while general solid feed and water were freely supplied thereto. The environmental conditions of the animal room were set to a temperature of 23±3° C., a relative humidity of 50±10%, a lighting time of 12 hours (8 am to 8 pm), a ventilation frequency of 10 to 20 times/hour, and an illumination intensity of 150 to 300 Lux. During the experiment, the temperature and humidity of the animal room were automatically controlled using a thermo-hygrostat. […] After termination of the experiment, blood was collected, serum was isolated therefrom, and the amounts of secreted prolactin and progesterone in the serum were measured using an ELISA kit. […]

CCN(CC)CCNC(=O)c1cc(Cl)c(N)cc1OC [metoclopramide, Metoclopramide]
Prolactin levels in the serum after model induction (FIG. 1): increased
Progesterone levels in the serum after model induction (fraction of normal) (FIG. 2): about ⅕
